In PubChem BioAssay AID248 (DTP/NCI, 2004):
Where “and” joins values, the source holds several entries; their conditions need not be identical. Identical values can stand only once. Toxic doses and inconclusive results are not listed. No stated cut-off is given here; in the data, active means T/C of 150% or more; inactive means T/C below 125%.

Tested on: L1210 leukemia ip in BDF1 mice, survival T/C
Experiment: NCI In Vivo Anticancer Drug Screen. Data for tumor model L1210 Leukemia (intraperitoneal) in B6D2F1 (BDF1) mice
Conditions: endpoint: mean survival time, higher = longer survival
Summary of the method: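 Each compound was tested against a transplantable tumor grown in mice. The endpoint was survival, with treated animals benchmarked against vehicle controls as a simple ratio.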

[1] = dose: 100.0 mg/kg/injection, schedule: Q04DX003 (ip), vehicle: saline
[2] = dose: 200.0 mg/kg/injection, schedule: Q04DX003 (ip), vehicle: saline
[3] = dose: 400.0 mg/kg/injection, schedule: Q04DX003 (ip), vehicle: saline
[4] = dose: 100.0 mg/kg/injection, schedule: Q01DX009 (ip), vehicle: saline
[5] = dose: 200.0 mg/kg/injection, schedule: Q01DX009 (ip), vehicle: saline
[6] = dose: 12.5 mg/kg/injection, schedule: Q01DX009 (ip), vehicle: saline
[7] = dose: 25.0 mg/kg/injection, schedule: Q01DX009 (ip), vehicle: saline
[8] = dose: 50.0 mg/kg/injection, schedule: Q01DX009 (ip), vehicle: saline
[9] = dose: 100.0 mg/kg/injection, schedule: Q01DX009 (ip), vehicle: Klucel (hydroxypropylcellulose) (HPC)
[10] = dose: 200.0 mg/kg/injection, schedule: Q01DX009 (ip), vehicle: Klucel (hydroxypropylcellulose) (HPC)
[11] = dose: 400.0 mg/kg/injection, schedule: Q01DX009 (ip), vehicle: Klucel (hydroxypropylcellulose) (HPC)
[12] = dose: 100.0 mg/kg/injection, schedule: Q01DX001 (ip), vehicle: saline
[13] = dose: 200.0 mg/kg/injection, schedule: Q01DX001 (ip), vehicle: saline
[14] = dose: 400.0 mg/kg/injection, schedule: Q01DX001 (ip), vehicle: saline
[15] = dose: 50.0 mg/kg/injection, schedule: Q01DX001 (ip), vehicle: saline
[16] = dose: 100.0 mg/kg/injection, schedule: Q01DX001 (ip), vehicle: carboxymethylcellulose (CMC)
[17] = dose: 200.0 mg/kg/injection, schedule: Q01DX001 (ip), vehicle: carboxymethylcellulose (CMC)
[18] = dose: 400.0 mg/kg/injection, schedule: Q01DX001 (ip), vehicle: carboxymethylcellulose (CMC)
[19] = dose: 100.0 mg/kg/injection, schedule: Q04DX003 (ip), vehicle: saline with Tween-80
[20] = dose: 200.0 mg/kg/injection, schedule: Q04DX003 (ip), vehicle: saline with Tween-80
[21] = dose: 400.0 mg/kg/injection, schedule: Q04DX003 (ip), vehicle: saline with Tween-80

Measured: T/C

O=C(CCl)Nc1ccccn1
inactive: [1] 97 % of control | [2] 97 % of control | [3] 88 % of control

CCOc1ccccc1NC(=O)c1cc2ccccc2cc1O
inactive: [4] 102 % of control | [1] 98 % of control | [5] 109 % of control | [2] 102 % of control | dose: 400.0 mg/kg/injection, schedule: Q01DX009 (ip), vehicle: saline 102 % of control | [3] 100 % of control

[Cl][Nd]([Cl])[Cl]
inactive: [6] 98 % of control | [7] 87 % of control | [8] 93 % of control and 91 % of control | [1] 100 % of control | [5] 86 % of control | [2] 100 % of control

Cc1c2oc3c(C)ccc(C(=O)OCCN4CCCCC4)c3nc-2c(C(=O)OCCN2CCCCC2)c(N)c1=O
inactive: dose: 100.0 mg/kg/injection, schedule: Q04DX002 (ip), vehicle: saline with Tween-80 113 % of control | dose: 200.0 mg/kg/injection, schedule: Q04DX002 (ip), vehicle: saline with Tween-80 98 % of control

Cc1ccc(C)c(NC(=O)OC/C=C/c2ccccc2)c1
inactive: [9] 88 % of control | [10] 86 % of control | [11] 86 % of control

Cc1cc(=O)[nH]c2c1C(=O)c1c(C)cc(=O)n(C)c1C2=O
inactive: dose: 0.75 mg/kg/injection, schedule: Q01DX009 (ip), vehicle: Klucel (hydroxypropylcellulose) (HPC) 95 % of control | dose: 1.0 mg/kg/injection, schedule: Q04DX003 (ip), vehicle: Klucel (hydroxypropylcellulose) (HPC) 93 % of control | dose: 1.5 mg/kg/injection, schedule: Q01DX009 (ip), vehicle: Klucel (hydroxypropylcellulose) (HPC) 100 % of control | dose: 3.0 mg/kg/injection, schedule: Q01DX009 (ip), vehicle: Klucel (hydroxypropylcellulose) (HPC) 95 % of control and 96 % of control | dose: 3.0 mg/kg/injection, schedule: Q04DX003 (ip), vehicle: Klucel (hydroxypropylcellulose) (HPC) 105 % of control | dose: 6.0 mg/kg/injection, schedule: Q04DX003 (ip), vehicle: Klucel (hydroxypropylcellulose) (HPC) 92 % of control

CC(C)(O)C(O)c1ccccc1 (centres undefined)
inactive: [12] 103 % of control | [4] 98 % of control | [1] 97 % of control | [13] 101 % of control | [5] 93 % of control | [2] 97 % of control | [14] 95 % of control | [3] 100 % of control

O=C1OC(=O)C2C1C=C(c1ccccc1)C1C3C=CC(C4C(=O)OC(=O)C34)C21 (centres undefined)
inactive: [15] 98 % of control | [12] 101 % of control | [13] 104 % of control | [14] 106 % of control

COc1cccc(CNCc2cccc(OC)c2O)c1O
inactive: [12] 96 % of control

CSCCC(N)C(=O)O (centres undefined)
inactive: dose: 40.0 mg/kg/injection, schedule: Q01DX009 (ip), vehicle: saline 96 % of control | dose: 80.0 mg/kg/injection, schedule: Q01DX009 (ip), vehicle: saline 107 % of control | [16] 92 % of control | dose: 100.0 mg/kg/injection, schedule: Q04DX003 (ip), vehicle: Klucel (hydroxypropylcellulose) (HPC) 104 % of control | dose: 160.0 mg/kg/injection, schedule: Q01DX009 (ip), vehicle: saline 102 % of control | [17] 95 % of control | dose: 200.0 mg/kg/injection, schedule: Q04DX003 (ip), vehicle: Klucel (hydroxypropylcellulose) (HPC) 98 % of control | dose: 320.0 mg/kg/injection, schedule: Q01DX009 (ip), vehicle: saline 98 % of control | [18] 103 % of control | dose: 400.0 mg/kg/injection, schedule: Q04DX003 (ip), vehicle: Klucel (hydroxypropylcellulose) (HPC) 102 % of control

COC(=O)c1ccccc1OC(=S)N(C)C
inactive: [19] 113 % of control | [20] 103 % of control | [21] 114 % of control

C[P+]1(C)CC=C2CCCCC21 (centres undefined)
inactive: dose: 12.5 mg/kg/injection, schedule: Q04DX002 (ip), vehicle: saline with Tween-80 100 % of control | dose: 25.0 mg/kg/injection, schedule: Q04DX002 (ip), vehicle: saline with Tween-80 98 % of control | dose: 50.0 mg/kg/injection, schedule: Q04DX002 (ip), vehicle: saline with Tween-80 98 % of control

COC(=O)CNC(=O)CCNC(=O)OCc1ccccc1
inactive: [19] 98 % of control | [20] 97 % of control | [21] 98 % of control

O/N=C(\C=N\O)c1ccccc1
inactive: dose: 100.0 mg/kg/injection, schedule: Q01DX009 (sc), vehicle: olive oil, sesame oil, peanut oil 109 % of control | dose: 100.0 mg/kg/injection, schedule: Q04DX003 (sc), vehicle: olive oil, sesame oil, peanut oil 98 % of control | dose: 200.0 mg/kg/injection, schedule: Q01DX009 (sc), vehicle: olive oil, sesame oil, peanut oil 112 % of control | dose: 200.0 mg/kg/injection, schedule: Q04DX003 (sc), vehicle: olive oil, sesame oil, peanut oil 101 % of control | dose: 400.0 mg/kg/injection, schedule: Q01DX009 (sc), vehicle: olive oil, sesame oil, peanut oil 98 % of control

CC(=O)Nc1ccc(C(=O)N=C(C2CCCC2)N2CCCC2)cc1
inactive: [12] 96 % of control | [13] 100 % of control | [14] 105 % of control

O=C(COc1ccc(Br)cc1Br)OCCBr
inactive: [12] 97 % of control | [13] 105 % of control | [14] 100 % of control

C=CCCCCCCCCC(=O)NC(C)COC (centres undefined)
inactive: dose: 50.0 mg/kg/injection, schedule: Q01DX009 (ip), vehicle: saline with Tween-80 103 % of control | dose: 100.0 mg/kg/injection, schedule: Q01DX009 (ip), vehicle: saline with Tween-80 103 % of control | dose: 200.0 mg/kg/injection, schedule: Q01DX009 (ip), vehicle: saline with Tween-80 100 % of control

C=CC(C)(C)c1c2c(c(O)c3c(=O)c4ccc(O)c(O)c4oc13)C=CC(C)(C)O2
inactive: [16] 95 % of control | [17] 92 % of control | [18] 95 % of control

c1cnc(OCCN2CC2)cn1
inactive: dose: 25.0 mg/kg/injection, schedule: Q01DX001 (ip), vehicle: saline 115 % of control | [15] 96 % of control

O=S(=O)(c1cc(Cl)c(O)c(Cl)c1)c1cc(Cl)c(O)c(Cl)c1
inactive: dose: 25.0 mg/kg/injection, schedule: Q01DX009 (ip), vehicle: Klucel (hydroxypropylcellulose) (HPC) 92 % of control | dose: 50.0 mg/kg/injection, schedule: Q01DX009 (ip), vehicle: Klucel (hydroxypropylcellulose) (HPC) 96 % of control | [9] 95 % of control and 109 % of control

CCCC1(CCC)CN(C)C1=O
inactive: [6] 97 % of control | [7] 88 % of control | dose: 25.0 mg/kg/injection, schedule: Q04DX003 (ip), vehicle: saline 104 % of control | [8] 100 % of control | dose: 50.0 mg/kg/injection, schedule: Q04DX003 (ip), vehicle: saline 98 % of control | [4] 102 % of control | [1] 98 % of control | [5] 102 % of control | [2] 98 % of control

O=C(O)c1cc(N=Nc2ncn[nH]2)ccc1O
inactive: dose: 87.5 mg/kg/injection, schedule: Q04DX003 (ip), vehicle: Klucel (hydroxypropylcellulose) (HPC) 96 % of control | dose: 175.0 mg/kg/injection, schedule: Q04DX003 (ip), vehicle: Klucel (hydroxypropylcellulose) (HPC) 97 % of control | dose: 350.0 mg/kg/injection, schedule: Q04DX003 (ip), vehicle: Klucel (hydroxypropylcellulose) (HPC) 100 % of control

Cc1ccc(-n2c(O)c(N=Nc3ccc(Cl)cc3)c(=O)n(-c3ccc(I)cc3)c2=S)cc1
inactive: dose: 37.5 mg/kg/injection, schedule: Q01DX001 (ip), vehicle: Klucel (hydroxypropylcellulose) (HPC) 92 % of control | dose: 75.0 mg/kg/injection, schedule: Q01DX001 (ip), vehicle: Klucel (hydroxypropylcellulose) (HPC) 97 % of control | dose: 150.0 mg/kg/injection, schedule: Q01DX001 (ip), vehicle: Klucel (hydroxypropylcellulose) (HPC) 100 % of control

O=[N+]([O-])c1ccc(C=Nc2ccc([N+](=O)[O-])cc2)cc1
inactive: [1] 90 % of control | [2] 86 % of control | [3] 93 % of control

C=CCc1ccc(OC(=O)Nc2cccc(OC)c2)c(OC)c1
inactive: [9] 106 % of control | [10] 98 % of control | [11] 88 % of control

CCOC(=O)c1ccnc2ccc(O)cc12
inactive: [19] 104 % of control | [20] 96 % of control | [21] 95 % of control
